How the values were obtained:
Type in all cases: in vivo
[1] = system: Spodoptera littoralis (Egyptian Cotton Leaf Worm); test: Example B16 Spodoptera littoralis feeding/contact activity; conditions: foliar, 72 h, application rate of 200 ppm, L1 larvae on sprayed cotton leaf discs, 3 days after infestation
Procedure: Spodoptera littoralis (Egyptian Cotton Leaf Worm): Feeding/Contact Activity
Cotton leaf discs were placed onto agar in 24-well microtiter plates and sprayed with aqueous test solutions prepared from 10,000 ppm DMSO stock solutions. After drying the leaf discs were infested with five L1 larvae. The samples were assessed for mortality 3 days after infestation.

[2] = system: Spodoptera littoralis (Egyptian Cotton Leaf Worm); test: Example B15 Spodoptera littoralis growth inhibition activity; conditions: foliar, 72 h, application rate of 200 ppm, L1 larvae on sprayed cotton leaf discs, 3 days after infestation, read-out: control (growth inhibition)
Procedure: Spodoptera littoralis (Egyptian Cotton Leaf Worm): Growth Inhibition Activity
Cotton leaf discs were placed onto agar in 24-well microtiter plates and sprayed with aqueous test solutions prepared from 10,000 ppm DMSO stock solutions. After drying the leaf discs were infested with five L1 larvae. The samples were assessed for growth inhibition in comparison to untreated samples 3 days after infestation. Control of Spodoptera littoralis by a test sample is given when the growth inhibition is higher than the untreated sample.

[3] = system: Diabrotica balteata (Corn Root Worm); test: Example B4 Diabrotica balteata mortality; conditions: 96 h, application rate of 200 ppm, L2 larvae on sprayed maize sprouts, 4 days after infestation
Procedure: Diabrotica Balteata (Corn Root Worm):
Maize sprouts placed onto an agar layer in 24-well microtiter plates were treated with aqueous test solutions prepared from 10,000 ppm DMSO stock solutions by spraying. After drying, the plates were infested with L2 larvae (6 to 10 per well). The samples were assessed for mortality 4 days after infestation.

[4] = system: Euschistus heros (Neotropical Brown Stink Bug); test: Example B5 Euschistus heros mortality and growth inhibition; conditions: 120 h, application rate of 200 ppm, N2 nymphs on sprayed soybean leaves, 5 days after infestation, read-out: effect in at least one of the two categories (mortality or growth inhibition)
Procedure: Euschistus heros (Neotropical Brown Stink Bug)
Soybean leaves on agar in 24-well microtiter plates were sprayed with aqueous test solutions prepared from 10,000 ppm DMSO stock solutions. After drying the leaves were infested with N2 nymphs. The samples were assessed for mortality and growth inhibition in comparison to untreated samples 5 days after infestation.

[5] = system: Myzus persicae (Green Peach Aphid); test: Example B9 Myzus persicae feeding/contact activity; conditions: foliar, 144 h, application rate of 200 ppm, mixed-age aphids on sprayed sunflower leaf discs, 6 days after infestation
Procedure: Myzus persicae (Green Peach Aphid): Feeding/Contact Activity
Sunflower leaf discs were placed onto agar in a 24-well microtiter plate and sprayed with aqueous test solutions prepared from 10,000 ppm DMSO stock solutions. After drying, the leaf discs were infested with an aphid population of mixed ages. The samples were assessed for mortality 6 days after infestation.

[6] = system: Plutella xylostella (Diamond Back Moth); test: Example B12 Plutella xylostella feeding/contact activity; conditions: 120 h, application rate of 200 ppm, L2 larvae on treated artificial diet, 5 days after infestation
Procedure: Plutella xylostella (Diamond Back Moth): Feeding/Contact Activity
24-well microtiter plates with artificial diet were treated with aqueous test solutions prepared from 10,000 ppm DMSO stock solutions by pipetting. After drying, the plates were infested with L2 larvae (10 to 15 per well). The samples were assessed for mortality 5 days after infestation.

[7] = system: Plutella xylostella (Diamond Back Moth); test: Example B11 Plutella xylostella growth inhibition activity; conditions: 120 h, application rate of 200 ppm, L2 larvae on treated artificial diet, 5 days after infestation
Procedure: Plutella xylostella (Diamond Back Moth): Growth Inhibition Activity
24-well microtiter plates with artificial diet were treated with aqueous test solutions prepared from 10,000 ppm DMSO stock solutions by pipetting. After drying, the plates were infested with L2 larvae (10 to 15 per well). The samples were assessed for growth inhibition in comparison to untreated samples 5 days after infestation. Control of Plutella xylostella by a test sample is given when the growth inhibition is higher than the untreated sample.

[8] = system: Bemisia tabaci (Cotton White Fly); test: Example B1 Bemisia tabaci feeding/contact activity; conditions: foliar, 144 h, application rate of 200 ppm, adult white flies on sprayed cotton leaf discs, 6 days after incubation
Procedure: Bemisia tabaci (Cotton White Fly): Feeding/Contact Activity
Cotton leaf discs were placed on agar in 24-well microtiter plates and sprayed with aqueous test solutions prepared from 10,000 ppm DMSO stock solutions. After drying the leaf discs were infested with adult white flies. The samples were checked for mortality 6 days after incubation.

[9] = system: Euschistus heros (Neotropical Brown Stink Bug); test: Example B7 Euschistus heros feeding/contact activity; conditions: 120 h, application rate of 200 ppm, N2 nymphs on sprayed soybean leaves, 5 days after infestation
Procedure: Euschistus heros (Neotropical Brown Stink Bug): Feeding/Contact Activity
Soybean leaves on agar in 24-well microtiter plates were sprayed with aqueous test solutions prepared from 10,000 ppm DMSO stock solutions. After drying the leaves were infested with N2 nymphs. The samples were assessed for mortality 5 days after infestation.

[10] = system: Spodoptera littoralis (Egyptian Cotton Leaf Worm); test: Example B14 Spodoptera littoralis anti-feeding activity; conditions: foliar, 72 h, application rate of 200 ppm, L1 larvae on sprayed cotton leaf discs, 3 days after infestation, read-out: control (anti-feeding effect)
Procedure: Spodoptera littoralis (Egyptian Cotton Leaf Worm): Anti-Feeding Activity
Cotton leaf discs were placed onto agar in 24-well microtiter plates and sprayed with aqueous test solutions prepared from 10,000 ppm DMSO stock solutions. After drying the leaf discs were infested with five L1 larvae. The samples were assessed for anti-feeding effect in comparison to untreated samples 3 days after infestation. Control of Spodoptera littoralis by a test sample is given when the anti-feedant effect is higher than the untreated sample.

[11] = system: Diabrotica balteata (Corn Root Worm); test: Example B2 Diabrotica balteata mortality and growth inhibition; conditions: 96 h, application rate of 200 ppm, L2 larvae on sprayed maize sprouts, 4 days after infestation, read-out: effect in at least one of the two categories (mortality or growth inhibition)
Procedure: Diabrotica balteata (Corn Root Worm)
Maize sprouts placed onto an agar layer in 24-well microtiter plates were treated with aqueous test solutions prepared from 10,000 ppm DMSO stock solutions by spraying. After drying, the plates were infested with L2 larvae (6 to 10 per well). The samples were assessed for mortality and growth inhibition in comparison to untreated samples 4 days after infestation.

[12] = system: Plutella xylostella (Diamond Back Moth); test: Example B13 Plutella xylostella mortality and growth inhibition; conditions: 120 h, application rate of 200 ppm, L2 larvae on treated artificial diet, 5 days after infestation, read-out: effect in at least one of the two categories (mortality or growth inhibition)
Procedure: Plutella xylostella (Diamond Back Moth)
24-well microtiter plates with artificial diet were treated with aqueous test solutions prepared from 10,000 ppm DMSO stock solutions by pipetting. After drying, the plates were infested with L2 larvae (10 to 15 per well). The samples were assessed for mortality and growth inhibition in comparison to untreated samples 5 days after infestation.

[13] = system: Frankliniella occidentalis (Western Flower Thrips); test: Example B8 Frankliniella occidentalis feeding/contact activity; conditions: foliar, 168 h, application rate of 200 ppm, mixed-age population on sprayed sunflower leaf discs, 7 days after infestation
Procedure: Frankliniella occidentalis (Western Flower Thrips): Feeding/Contact Activity
Sunflower leaf discs were placed on agar in 24-well microtiter plates and sprayed with aqueous test solutions prepared from 10,000 DMSO stock solutions. After drying the leaf discs were infested with a Frankliniella population of mixed ages. The samples were assessed for mortality 7 days after infestation.

[14] = system: Myzus persicae (Green Peach Aphid); test: Example B10 Myzus persicae systemic activity; conditions: 144 h, test rate of 24 ppm, roots of infested pea seedlings in test solution, 6 days
Procedure: Myzus persicae (Green Peach Aphid). Systemic Activity
Roots of pea seedlings infested with an aphid population of mixed ages were placed directly into aqueous test solutions prepared from 10,000 DMSO stock solutions. The samples were assessed for mortality 6 days after placing seedlings into test solutions.

CCS(=O)(=O)c1cc(OCC(F)F)cnc1-c1cn2cnc(SC(F)(F)F)cc2n1 [Compound P4, 2-[5-(2,2-difluoroethoxy)-3-ethylsulfonyl-2-pyridyl]-7-(trifluoromethylsulfanyl)imidazo[1,2-c]pyrimidine]
≥ 80%: mortality at 200 ppm [1] | inhibition at 200 ppm [2] | mortality at 200 ppm [3] | percent effect (mortality or growth inhibition) at 200 ppm [4] | mortality at 200 ppm [5] | mortality at 200 ppm [6] | inhibition at 200 ppm [7] | mortality at 200 ppm [8] | mortality at 200 ppm [9] | pest or weed control at 200 ppm [10] | percent effect (mortality or growth inhibition) at 200 ppm [11] | percent effect (mortality or growth inhibition) at 200 ppm [12]

CCS(=O)(=O)c1cc(OC(C)(C)C(N)=O)cnc1-c1cn2cnc(C(F)(F)F)cc2n1 [Compound P12, 2-[[5-ethylsulfonyl-6-[7-(trifluoromethyl)imidazo[1,2-c]pyrimidin-2-yl]-3-pyridyl]oxy]-2-methyl-propanamide]
≥ 80%: inhibition at 200 ppm [2] | percent effect (mortality or growth inhibition) at 200 ppm [4] | mortality at 200 ppm [5] | mortality at 200 ppm [9]

CCS(=O)(=O)c1cc(OC(C)(C)C#N)cnc1-c1cn2cnc(C(F)(F)C(F)(F)F)cc2n1 [Compound P18, 2-[[5-ethylsulfonyl-6-[7-(1,1,2,2,2-pentafluoroethyl)imidazo[1,2-c]pyrimidin-2-yl]-3-pyridyl]oxy]-2-methyl-propanenitrile]
≥ 80%: mortality at 200 ppm [1] | mortality at 200 ppm [3] | mortality at 200 ppm [13] | percent effect (mortality or growth inhibition) at 200 ppm [4] | mortality at 200 ppm [5] | mortality at 200 ppm [6] | inhibition at 200 ppm [7] | mortality at 200 ppm [8] | mortality at 200 ppm [9] | pest or weed control at 200 ppm [10] | percent effect (mortality or growth inhibition) at 200 ppm [11] | percent effect (mortality or growth inhibition) at 200 ppm [12]

CCS(=O)(=O)c1cc(OC)cnc1-c1cn2cnc(C(F)(F)F)cc2n1 [Compound P9, 2-(3-ethylsulfonyl-5-methoxy-2-pyridyl)-7-(trifluoromethyl)imidazo[1,2-c]pyrimidine]
≥ 80%: mortality at 200 ppm [1] | inhibition at 200 ppm [2] | mortality at 200 ppm [3] | mortality at 200 ppm [5] | mortality at 200 ppm [6] | inhibition at 200 ppm [7] | mortality at 24 ppm [14] | pest or weed control at 200 ppm [10] | percent effect (mortality or growth inhibition) at 200 ppm [11] | percent effect (mortality or growth inhibition) at 200 ppm [12]

CCS(=O)(=O)c1cc(OC(C)(C)C#N)cnc1-c1cn2cnc(C(F)(F)F)cc2n1 [Compound P13, 2-[[5-ethylsulfonyl-6-[7-(trifluoromethyl)imidazo[1,2-c]pyrimidin-2-yl]-3-pyridyl]oxy]-2-methyl-propanenitrile]
≥ 80%: mortality at 200 ppm [1] | mortality at 200 ppm [3] | mortality at 200 ppm [13] | percent effect (mortality or growth inhibition) at 200 ppm [4] | mortality at 200 ppm [5] | mortality at 200 ppm [6] | inhibition at 200 ppm [7] | mortality at 200 ppm [8] | mortality at 200 ppm [9] | pest or weed control at 200 ppm [10] | percent effect (mortality or growth inhibition) at 200 ppm [11] | percent effect (mortality or growth inhibition) at 200 ppm [12]

CCS(=O)(=O)c1cc(OCSC)cnc1-c1cn2cnc(C(F)(F)F)cc2n1 [Compound P16, 2-[3-ethylsulfonyl-5-(methylsulfanylmethoxy)-2-pyridyl]-7-(trifluoromethyl)imidazo[1,2-c]pyrimidine]
≥ 80%: mortality at 200 ppm [1] | mortality at 200 ppm [3] | mortality at 200 ppm [13] | percent effect (mortality or growth inhibition) at 200 ppm [4] | mortality at 200 ppm [5] | inhibition at 200 ppm [7] | mortality at 24 ppm [14] | mortality at 200 ppm [8] | mortality at 200 ppm [9] | pest or weed control at 200 ppm [10] | percent effect (mortality or growth inhibition) at 200 ppm [11] | percent effect (mortality or growth inhibition) at 200 ppm [12]

CCS(=O)(=O)c1cc(OC)cnc1-c1cn2cnc(SC(F)(F)F)cc2n1 [Compound P5, 2-(3-ethylsulfonyl-5-methoxy-2-pyridyl)-7-(trifluoromethylsulfanyl)imidazo[1,2-c]pyrimidine]
≥ 80%: mortality at 200 ppm [1] | inhibition at 200 ppm [2] | mortality at 200 ppm [3] | percent effect (mortality or growth inhibition) at 200 ppm [4] | mortality at 200 ppm [5] | mortality at 200 ppm [6] | mortality at 200 ppm [9] | pest or weed control at 200 ppm [10] | percent effect (mortality or growth inhibition) at 200 ppm [11] | percent effect (mortality or growth inhibition) at 200 ppm [12]

Reference: patent US10945435B2, “Imidazopyrimidine derivatives with sulfur containing phenyl and pyridyl substituents” (SYNGENTA PARTICIPATIONS AG, priority 2017, dated 2021)
